Here are results for six molecules from PMC6966912, “Inverted Binding of Non-natural Substrates in Strictosidine Synthase Leads to a Switch of Stereochemical Outcome in Enzyme-Catalyzed Pictet–Spengler Reactions” (Journal of the American Chemical Society, 2020).

The target of data set [1] is T1, OpSTR (strictosidine synthase from Ophiorrhiza pumila) (Ophiorrhiza pumila, UniProt Q94LW9). The data set can be described thus: X-ray crystal structure (cocrystallization with racemate). Format: binding. As to conditions: active site, near Glu276. Also noted: gene str; N-terminal signal peptide removed for improved expression.
Data set [2] has as its target T1, OpSTR (strictosidine synthase from Ophiorrhiza pumila). Description: biochemical. Also noted: gene str.
Substrate in data set [3]: CC(C)CC=O
Description: enzyme kinetics of Pictet-Spengler reaction. Format: biochemical, Ophiorrhiza pumila. The settings on record: co-substrate tryptamine.

Take `CCC[C@@H]1NCCc2c1[nH]c1ccccc21` [3b, (S)-3b]: the “X-ray crystal structure (cocrystallization with racemate)” value (“X-ray crystal structure” below) in data set [1] was “exclusively the (S)-enantiomers of 3a–c were identified in the active site of OpSTR”. `CC(C)C[C@@H]1NCCc2c1[nH]c1ccccc21` [3a, (S)-3a]: the “X-ray crystal structure” value in data set [1] is listed as “exclusively the (S)-enantiomers of 3a–c were identified in the active site of OpSTR”.

As to `CC[C@@H]1NCCc2c1[nH]c1ccccc21` [3c, (S)-3c], the “X-ray crystal structure” value in data set [1] is given as “exclusively the (S)-enantiomers of 3a–c were identified in the active site of OpSTR”.

As a reminder, the IC50 is the point on the concentration scale where inhibition reaches its midpoint. A higher IC50 goes with weaker potency. With `C[C@@H]1NCCc2c1[nH]c1ccccc21` [(S)-3d], the IC50 in data set [2] was 1600 ± 100 µM. In data set [2], `CC1NCCc2c1[nH]c1ccccc21` (racemic) [rac-3d] displayed an IC50 of 3400 ± 300 µM.

B1: OpSTR (strictosidine synthase from Ophiorrhiza pumila) (Ophiorrhiza pumila) (protein)
chain: SPEFFEFIEAPSYGPNAYAFDSDGELYASVEDGRIIKYDKPSNKFLTHAVASPIWNNALCENNTNQDLKPLCGRVYDFGFHYETQRLYIADCYFGLGFVGPDGGHAIQLATSGDGVEFKWLYALAIDQQAGFVYVTDVSTKYDDRGVQDIIRINDTTGRLIKYDPSTEEVTVLMKGLNIPGGTEVSKDGSFVLVGEFASHRILKYWLKGPKANTSEFLLKVRGPGNIKRTKDGDFWVASSDNNGITVTPRGIRFDEFGNILEVVAIPLPYKGEHIEQVQEHDGALFVGSLFHEFVGILHNYKSSVDHHQEKNSGGLNASFKEFSSF
notes: N-terminal signal peptide removed for improved expression
The term Km denotes the substrate concentration at which the rate is half of its maximum. With B1, in data set [3], the Michaelis-Menten constant (Km) was 5.36 ± 0.83 mM.
